This is an account of results in ChEMBL document CHEMBL2069236, “Synthesis and biological evaluation of novel N-acyl substituted quinolin-2(1H)-one derivatives as potential antimicrobial agents” (2012).

Converted amounts (≈) assume the structure as drawn.

Type in all cases: functional
The subject of experiment [1] is Staphylococcus aureus. As to the kind of experiment: Antibacterial activity against Staphylococcus aureus ATCC 25923 by disc diffusion method. In general terms: In agar diffusion tests the substance spreads into inoculated agar from a disc or well.
The test system of experiment [2] is Staphylococcus aureus. Briefly: Antibacterial activity against methicillin-resistant Staphylococcus aureus N 315 by disc diffusion method.
The test system of a further experiment is Bacillus subtilis. As to the kind of experiment: Antibacterial activity against Bacillus subtilis ATCC 6633 by disc diffusion method.
The test system of another experiment is Bacillus. Briefly: Antibacterial activity against Bacillus proteus by disc diffusion method.
A further experiment has as its system Escherichia coli. Briefly: Antibacterial activity against Escherichia coli JM 109 by disc diffusion method.
Another experiment relates to Candida albicans. As to the kind of experiment: Antifungal activity against Candida albicans ATCC 76615 by disc diffusion method.
The next experiment relates to Candida. As to the kind of experiment: Antifungal activity against Candida mycoderma by disc diffusion method.
For experiment [3], the system named is Staphylococcus aureus. Briefly: Ratio of streptomycin MIC to compound MIC for methicillin-resistant Staphylococcus aureus N 315.

In general, MIC refers to the smallest concentration in the dilution series that meets the test's criterion for growth inhibition. With `CN[C@@H]1[C@H](O[C@H]2[C@H](O[C@H]3[C@H](O)[C@@H](O)[C@H](N=C(N)N)[C@@H](O)[C@@H]3N=C(N)N)O[C@@H](C)[C@]2(O)C=O)O[C@@H](CO)[C@H](O)[C@H]1O` [STREPTOMYCIN], the minimum inhibitory concentration (MIC) in the experiment with Staphylococcus aureus [1] worked out at 32 µg/mL (≈ 55 µM); in the experiment with Staphylococcus aureus [2] it was 512 µg/mL (≈ 880 µM); against Bacillus subtilis it was 32 µg/mL (≈ 55 µM); with Bacillus, 64 µg/mL (≈ 110 µM); with Escherichia coli it was 16 µg/mL (≈ 27.5 µM).
On to `Cl.O=C1CCc2c(cccc2NC(=O)CN(CCO)CCO)N1`, for which the minimal inhibitory concentration (MIC) in the experiment on Staphylococcus aureus [1] came out at 128 µg/mL; in the experiment on Staphylococcus aureus [2], 64 µg/mL; in the experiment with Bacillus subtilis, 128 µg/mL; in the experiment with Bacillus it was 128 µg/mL; against Escherichia coli, 128 µg/mL; against Candida albicans it was 4 µg/mL. This compound had an MIC with Candida of 128 µg/mL.
As to `Cl.O=C1CCc2c(cccc2NC(=O)Cn2ccnc2)N1`, the MIC with Staphylococcus aureus [1] came out at 16 µg/mL; in the experiment on Staphylococcus aureus [2], 64 µg/mL; in the experiment on Bacillus subtilis it was 32 µg/mL; with Bacillus, 64 µg/mL; in the experiment on Escherichia coli, 64 µg/mL; in the experiment with Candida albicans it was 16 µg/mL. In the experiment on Candida, this compound had a minimal inhibitory concentration (MIC) of 16 µg/mL. Further, the Ratio in the experiment on Staphylococcus aureus [3] is 8.
`Cl.O=C1CCc2c(cccc2NC(=O)CN(Cc2ccccc2)Cc2ccccc2)N1`: the minimal inhibitory concentration (MIC) was determined as 128 µg/mL in the experiment on Staphylococcus aureus [1]; 128 µg/mL with Staphylococcus aureus [2]; 32 µg/mL against Bacillus subtilis; 32 µg/mL in the experiment on Bacillus; 64 µg/mL against Escherichia coli; 128 µg/mL in the experiment with Candida albicans. The compound also registered an MIC against Candida of 256 µg/mL.
Consider `Cl.O=C1CCc2c(cccc2NC(=O)CN2CCCC2)N1`, for which the minimal inhibitory concentration (MIC) with Staphylococcus aureus [1] was 32 µg/mL; against Staphylococcus aureus [2], 32 µg/mL; against Bacillus subtilis, 32 µg/mL; in the experiment on Bacillus, 128 µg/mL; with Escherichia coli, 32 µg/mL; against Candida albicans it was 32 µg/mL. In the experiment on Candida, it took 128 µg/mL to inhibit growth (MIC). The Ratio with Staphylococcus aureus [3] turned out to be 8.
Consider `CCCN(CCC)CC(=O)Nc1cccc2c1CCC(=O)N2.Cl`, for which the MIC with Staphylococcus aureus [1] worked out at 8 µg/mL; against Staphylococcus aureus [2], 64 µg/mL; in the experiment with Bacillus subtilis it was 64 µg/mL; with Bacillus, 256 µg/mL; against Escherichia coli, 64 µg/mL; in the experiment with Candida albicans, 256 µg/mL. The same compound yielded an MIC in the experiment on Candida of 16 µg/mL.
In the case of `CC(C)(C)OC(=O)N1CCN(CC(=O)Nc2cccc3c2CCC(=O)N3)CC1.Cl`, the minimum inhibitory concentration (MIC) against Staphylococcus aureus [1] came out at 64 µg/mL; in the experiment with Staphylococcus aureus [2], 32 µg/mL; in the experiment on Bacillus subtilis it was 32 µg/mL; against Bacillus it was 128 µg/mL; against Escherichia coli, 16 µg/mL; against Candida albicans, 128 µg/mL. Moreover, the minimal inhibitory concentration (MIC) in the experiment with Candida came out at 32 µg/mL. Further, in the experiment with Staphylococcus aureus [3], the Ratio worked out at 8.
As to `Cl.O=C1CCc2c(cccc2NC(=O)Cn2cnc3ccccc32)N1`, the minimal inhibitory concentration (MIC) against Staphylococcus aureus [1] was 16 µg/mL; against Staphylococcus aureus [2], 32 µg/mL; in the experiment on Bacillus subtilis, 128 µg/mL; against Bacillus, 256 µg/mL; in the experiment with Escherichia coli it was 32 µg/mL; in the experiment on Candida albicans, 256 µg/mL. The MIC in the experiment on Candida came to 32 µg/mL. For the same compound, in the experiment with Staphylococcus aureus [3], the Ratio is reported as 8.
For the compound `Cl.O=C1CCc2c(cccc2NC(=O)CN2CCNCC2)N1`, the minimal inhibitory concentration (MIC) with Staphylococcus aureus [1] came to 64 µg/mL; against Staphylococcus aureus [2], 32 µg/mL; with Bacillus subtilis, 64 µg/mL; with Bacillus, 16 µg/mL; in the experiment with Escherichia coli it was 128 µg/mL; in the experiment on Candida albicans, 32 µg/mL. Besides, the MIC in the experiment on Candida came out at 4 µg/mL. The Ratio in the experiment on Staphylococcus aureus [3] came out at 8.
With `CC(C)(C)NCC(=O)Nc1cccc2c1CCC(=O)N2.Cl`, the minimal inhibitory concentration (MIC) with Staphylococcus aureus [1] was determined as 32 µg/mL; against Staphylococcus aureus [2], 128 µg/mL; against Bacillus subtilis it was 256 µg/mL; in the experiment with Bacillus it was 256 µg/mL; in the experiment on Escherichia coli it was 32 µg/mL; in the experiment on Candida albicans it was 16 µg/mL. Besides, in the experiment with Candida, the minimum inhibitory concentration (MIC) worked out at 32 µg/mL.
Consider `CCN(CC)CC(=O)Nc1cccc2c1CCC(=O)N2.Cl`, for which the MIC against Staphylococcus aureus [1] is 128 µg/mL; in the experiment on Staphylococcus aureus [2] it was 64 µg/mL; against Bacillus subtilis, 32 µg/mL; in the experiment on Bacillus, 256 µg/mL; against Escherichia coli, 8 µg/mL; in the experiment on Candida albicans it was 256 µg/mL. Also, in the experiment on Candida, the MIC turned out to be 32 µg/mL.
`OC(Cn1cncn1)(Cn1cncn1)c1ccc(F)cc1F` [FLUCONAZOLE]: the MIC in the experiment with Candida albicans came to 4 µg/mL (≈ 13.1 µM); with Candida, 8 µg/mL (≈ 26.1 µM).
For `Cl.O=C1CCc2c(cccc2NC(=O)CN2CCCCC2)N1`, the minimal inhibitory concentration (MIC) turned out to be 32 µg/mL in the experiment on Staphylococcus aureus [1]; 64 µg/mL against Staphylococcus aureus [2]; 16 µg/mL in the experiment on Bacillus subtilis; 128 µg/mL in the experiment with Bacillus; 32 µg/mL in the experiment on Escherichia coli; 128 µg/mL in the experiment with Candida albicans. The same compound showed a minimal inhibitory concentration (MIC) in the experiment on Candida of 256 µg/mL. Besides, in the experiment with Staphylococcus aureus [3], the Ratio came to 8.
Consider `Cl.O=C1CCc2c(cccc2NC(=O)CN2CCOCC2)N1`, for which the minimum inhibitory concentration (MIC) against Staphylococcus aureus [1] was 128 µg/mL; against Staphylococcus aureus [2] it was 32 µg/mL; in the experiment with Bacillus subtilis, 128 µg/mL; against Bacillus it was 128 µg/mL; with Escherichia coli, 32 µg/mL; with Candida albicans, 64 µg/mL. In the experiment on Candida, this compound returned a minimal inhibitory concentration (MIC) of 32 µg/mL. The Ratio in the experiment with Staphylococcus aureus [3] worked out at 8.
Turning to `Cl.O=C1CCc2c(cccc2NC(=O)CNCc2ccccc2)N1`, the MIC with Staphylococcus aureus [1] came to 32 µg/mL; in the experiment on Staphylococcus aureus [2], 256 µg/mL; with Bacillus subtilis, 64 µg/mL; with Bacillus, 64 µg/mL; with Escherichia coli it was 64 µg/mL; against Candida albicans it was 32 µg/mL. Moreover, it took 32 µg/mL to inhibit growth with Candida (MIC).
